Each structure is given as a SMILES string.

One experiment deals with T1, KRAS (G12D) (Homo sapiens, UniProt P01116, G12D).
T1 construct: in-cell western with KRAS G12D antibody after 24 h
Description: KRAS (G12D) cellular degradation assay in AsPC-1 cells. The following applies: 24 hours, antibody fluorescence (Odyssey CLX), DC50 half-maximal degradation concentration. Type of experiment: cell-based. Summed up:
(§1)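 Proliferation IC50 comes from CellTiter Glo luminescence after 6 days' exposure of AsPC-1 (3,500 cells/well) to 1:3 dilutions from […] to 1.5 nM. KRAS G12D DC50 derives from in-cell immunofluorescence normalised to β-actin after 24 h treatment of near-confluent AsPC-1 cells over the same range.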

The next experiment deals with AsPC-1 cells. In words: AsPC-1 cell proliferation assay (CellTiter Glo). In kind it is cell-based. The following applies: Homo sapiens, ASPC1, 144 h, 6 days. The essentials: as §1

T1 sequence (P01116 1-188 isoform P01116-2 G12D): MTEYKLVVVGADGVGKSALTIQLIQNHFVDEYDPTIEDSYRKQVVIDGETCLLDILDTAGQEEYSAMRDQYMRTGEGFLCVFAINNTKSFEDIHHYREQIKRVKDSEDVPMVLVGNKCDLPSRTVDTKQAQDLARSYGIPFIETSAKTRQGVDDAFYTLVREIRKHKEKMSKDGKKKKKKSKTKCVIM

Broadly, the DC50 is the concentration giving 50% degradation. High values mean a less potent degrader, low ones a more potent degrader. In general, IC50 refers to the concentration that inhibits the measured activity by half. At KRAS (G12D), `CO[C@H]1C[C@H](Oc2nc(N(C)[C@@H]3CCNC3)c3cc(C4CC4)c(-c4c(C)c(F)cc5[nH]ncc45)c(OCc4ccc(-c5cn([C@H](C(=O)N6C[C@H](O)C[C@H]6C(=O)N[C@@H](CO)c6ccc(-c7scnc7C)cc6)C(C)C)nn5)cc4)c3n2)C1` [Example 203, (2S,4R)-1-((2S)-2-(4-(4-(((6-cyclopropyl-7-(6-fluoro-5-methyl-1H-indazol-4-yl)-2-((1r,3R)-3-methoxycyclobutoxy)-4-(methyl((R)-pyrrolidin-3-yl)amino)quinazolin-8-yl)oxy)methyl)phenyl)-1H-1,2,3-triazol-1-yl)-3-methylbutanoyl)-4-hydroxy-N—((R)-2-hydroxy-1-(4-(4-methylthiazol-5-yl)phenyl)ethyl)pyrrolidine-2-carboxamide] returned a DC50 below 10 nM. In the experiment on AsPC-1 cells, this compound registered an IC50 below 10 nM.

Regarding `CCn1nccc1-c1ccc([C@H](CO)NC(=O)[C@@H]2C[C@@H](O)CN2C(=O)[C@H](C(C)C)n2cc(-c3ccc(COc4c(-c5c(C)c(F)cc6[nH]ncc56)c(C5CC5)cc5c(N(C)[C@@H]6CCNC6)nc(O[C@H]6C[C@H](OC)C6)nc45)cc3)nn2)c2c1CC2` [Example 204, (2S,4R)-1-((2S)-2-(4-(4-(((6-cyclopropyl-7-(6-fluoro-5-methyl-1H-indazol-4-yl)-2-((1r,3R)-3-methoxycyclobutoxy)-4-(methyl((R)-pyrrolidin-3-yl)amino)quinazolin-8-yl)oxy)methyl)phenyl)-1H-1,2,3-triazol-1-yl)-3-methylbutanoyl)-N—((R)-1-(5-(1-ethyl-1H-pyrazol-5-yl)bicyclo[4.2.0]octa-1(6),2,4-trien-2-yl)-2-hydroxyethyl)-4-hydroxypyrrolidine-2-carboxamide], the DC50 on KRAS (G12D) was below 10 nM. Further, in the experiment with AsPC-1 cells, the IC50 was below 10 nM.

Regarding `CCn1nccc1-c1ccc([C@H](CO)NC(=O)[C@@H]2C[C@@H](O)CN2C(=O)[C@H](C(C)C)n2cc(-c3ccc(COc4c(-c5c(C)c(F)cc6[nH]ncc56)c(C5CC5)cc5c(N(C)[C@@H]6CCNC6)nc(O[C@H]6C[C@H](OC)C6)nc45)cc3)nn2)cc1` [Example 205, (2S,4R)-1-((2S)-2-(4-(4-(((6-cyclopropyl-7-(6-fluoro-5-methyl-1H-indazol-4-yl)-2-((1r,3R)-3-methoxycyclobutoxy)-4-(methyl((R)-pyrrolidin-3-yl)amino)quinazolin-8-yl)oxy)methyl)phenyl)-1H-1,2,3-triazol-1-yl)-3-methylbutanoyl)-N—((R)-1-(4-(1-ethyl-1H-pyrazol-5-yl)phenyl)-2-hydroxyethyl)-4-hydroxypyrrolidine-2-carboxamide], at KRAS (G12D), the DC50 was below 10 nM. Besides, the IC50 in the experiment with AsPC-1 cells was below 10 nM.

Take `CCn1nccc1-c1ccc([C@H](CO)NC(=O)[C@@H]2C[C@@H](O)CN2C(=O)[C@H](C(C)C)n2cc(-c3ccc(COc4c(-c5c(C)c(F)cc6[nH]ncc56)c(C5CC5)cc5c(N(C)C[C@H]6CCNC6)nc(OC[C@H](C)OC)nc45)cc3)nn2)cc1` [Example 206, (2S,4R)-1-((2S)-2-(4-(4-(((6-cyclopropyl-7-(6-fluoro-5-methyl-1H-indazol-4-yl)-2-((S)-2-methoxypropoxy)-4-(methyl(((S)-pyrrolidin-3-yl)methyl)amino)quinazolin-8-yl)oxy)methyl)phenyl)-1H-1,2,3-triazol-1-yl)-3-methylbutanoyl)-N—((R)-1-(4-(1-ethyl-1H-pyrazol-5-yl)phenyl)-2-hydroxyethyl)-4-hydroxypyrrolidine-2-carboxamide]: the DC50 at KRAS (G12D) was below 10 nM. Also, in the experiment on AsPC-1 cells, the IC50 was below 10 nM.

As to `CCn1nccc1-c1ccc([C@H](CO)NC(=O)[C@@H]2C[C@@H](O)CN2C(=O)[C@H](C(C)C)n2cc(-c3ccc(COc4c(-c5c(C)c(F)cc6[nH]ncc56)c(C5CC5)cc5c(N6CCCNCC6)nc(OC[C@@H]6CCCO6)nc45)cc3)nn2)cc1` [Example 207, (2S,4R)-1-((2S)-2-(4-(4-(((6-cyclopropyl-4-(1,4-diazepan-1-yl)-7-(6-fluoro-5-methyl-1H-indazol-4-yl)-2-(((S)-tetrahydrofuran-2-yl)methoxy)quinazolin-8-yl)oxy)methyl)phenyl)-1H-1,2,3-triazol-1-yl)-3-methylbutanoyl)-N—((R)-1-(4-(1-ethyl-1H-pyrazol-5-yl)phenyl)-2-hydroxyethyl)-4-hydroxypyrrolidine-2-carboxamide], the DC50 on KRAS (G12D) was below 10 nM. Besides, in the experiment on AsPC-1 cells, the IC50 is below 10 nM.

Take `Cc1ncsc1-c1ccc([C@@H](NC(=O)[C@@H]2C[C@@H](O)CN2C(=O)[C@H](C(C)C)n2cc(-c3ccc(COc4c(-c5c(C)c(F)cc6[nH]ncc56)c(C5CC5)cc5c(N(C)[C@H]6CCNC6)nc(OC[C@H]6CCCO6)nc45)cc3)nn2)[C@H](C)O)cc1` [Example 208, (2S,4R)-1-((2S)-2-(4-(4-(((6-cyclopropyl-7-(6-fluoro-5-methyl-1H-indazol-4-yl)-4-(methyl((S)-pyrrolidin-3-yl)amino)-2-(((R)-tetrahydrofuran-2-yl)methoxy)quinazolin-8-yl)oxy)methyl)phenyl)-1H-1,2,3-triazol-1-yl)-3-methylbutanoyl)-4-hydroxy-N-((1R,2S)-2-hydroxy-1-(4-(4-methylthiazol-5-yl)phenyl)propyl)pyrrolidine-2-carboxamide]: the DC50 on KRAS (G12D) is below 10 nM. In the experiment on AsPC-1 cells, this compound returned an IC50 below 10 nM.

The record behind these values is patent US20260295053A1, “COMPOUNDS FOR DEGRADATION AND INHIBITION OF KRAS (G12D) PROTEIN” (Shenzhen Ionova Life Science Co., Ltd., priority 2023, published 2026).
